Calls of active or inactive are those of the source.
Columns and labels:
[1] = target: Aryl hydrocarbon receptor (Homo sapiens, UniProt P35869); assay: Luminescence-based cell-based high throughput dose response assay for activators of the Aryl Hydrocarbon Receptor (AHR). [Related pubchem assays: 2796 (Primary screen (AHR activators in singlicate)), 2845 (Confirmation screen (AHR activators in triplicate)), 434939 (Counterscreen (PXR activators in triplicate)), 2804 (Summary (AHR activators))]; format: ADME
Cysteine protease ATG4B = target: T1, Cysteine protease ATG4B (Homo sapiens, UniProt Q9Y4P1); format: functional;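 note: Fluorescence-based dose-response confirmation assay measuring inhibition of ATG4B activity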
T1 sequence (Q9Y4P1 whole entry): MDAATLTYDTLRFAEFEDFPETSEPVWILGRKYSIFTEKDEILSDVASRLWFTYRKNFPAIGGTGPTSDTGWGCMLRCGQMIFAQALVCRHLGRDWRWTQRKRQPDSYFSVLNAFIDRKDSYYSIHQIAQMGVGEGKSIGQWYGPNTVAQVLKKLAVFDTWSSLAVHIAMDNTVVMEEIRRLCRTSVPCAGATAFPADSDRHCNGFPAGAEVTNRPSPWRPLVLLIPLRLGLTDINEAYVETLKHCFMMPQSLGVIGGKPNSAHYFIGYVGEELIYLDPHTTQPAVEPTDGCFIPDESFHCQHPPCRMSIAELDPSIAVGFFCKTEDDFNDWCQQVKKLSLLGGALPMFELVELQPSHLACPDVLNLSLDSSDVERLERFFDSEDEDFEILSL

[2] = target: Bifunctional protein GlmU (Mycobacterium tuberculosis, UniProt P9WMN3); assay: Inhibitors of Mycobacterial Glucosamine-1-phosphate acetyl transferase (GlmU). Secondary screen.; set-up: species or system Mycobacterium tuberculosis H37Rv
Sequence of Bifunctional protein GlmU (P9WMN3 whole entry): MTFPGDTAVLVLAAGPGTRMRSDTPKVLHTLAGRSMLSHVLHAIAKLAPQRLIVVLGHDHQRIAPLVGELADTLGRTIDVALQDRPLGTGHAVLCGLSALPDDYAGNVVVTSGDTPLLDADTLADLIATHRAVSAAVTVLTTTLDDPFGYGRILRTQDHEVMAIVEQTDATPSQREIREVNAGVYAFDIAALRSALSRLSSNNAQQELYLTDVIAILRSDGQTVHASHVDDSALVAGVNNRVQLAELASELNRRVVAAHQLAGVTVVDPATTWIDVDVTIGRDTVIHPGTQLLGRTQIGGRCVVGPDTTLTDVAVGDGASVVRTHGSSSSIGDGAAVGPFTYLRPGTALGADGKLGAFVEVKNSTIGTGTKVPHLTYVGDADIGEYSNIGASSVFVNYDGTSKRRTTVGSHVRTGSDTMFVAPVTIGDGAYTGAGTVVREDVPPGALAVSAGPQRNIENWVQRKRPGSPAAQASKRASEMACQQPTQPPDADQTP

Phospholipase A2 = Phospholipase A2 (Homo sapiens, UniProt P04054); format: functional;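 note: confirmatory dose-response counterscreen on phospholipase A2, testing hits that came from an ultra-high-throughput screen for ATG4B inhibitors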
Sequence of Phospholipase A2 (P04054 whole entry): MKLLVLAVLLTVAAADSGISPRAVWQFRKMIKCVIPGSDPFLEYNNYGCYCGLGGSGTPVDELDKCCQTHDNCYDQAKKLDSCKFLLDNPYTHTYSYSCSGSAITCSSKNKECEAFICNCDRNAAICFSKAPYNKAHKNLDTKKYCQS

[3] = M. tuberculosis growth inhibition, HTS (AID 449762); format: functional
[4] = target: T2, Mannose-6-phosphate isomerase (Homo sapiens, UniProt P34949); assay: MPI inhibition at elevated mannose 6-phosphate – biochemical, fluorescence intensity, high mannose 6-phosphate, primary screen (AID 1220)
T2 sequence (P34949 whole entry): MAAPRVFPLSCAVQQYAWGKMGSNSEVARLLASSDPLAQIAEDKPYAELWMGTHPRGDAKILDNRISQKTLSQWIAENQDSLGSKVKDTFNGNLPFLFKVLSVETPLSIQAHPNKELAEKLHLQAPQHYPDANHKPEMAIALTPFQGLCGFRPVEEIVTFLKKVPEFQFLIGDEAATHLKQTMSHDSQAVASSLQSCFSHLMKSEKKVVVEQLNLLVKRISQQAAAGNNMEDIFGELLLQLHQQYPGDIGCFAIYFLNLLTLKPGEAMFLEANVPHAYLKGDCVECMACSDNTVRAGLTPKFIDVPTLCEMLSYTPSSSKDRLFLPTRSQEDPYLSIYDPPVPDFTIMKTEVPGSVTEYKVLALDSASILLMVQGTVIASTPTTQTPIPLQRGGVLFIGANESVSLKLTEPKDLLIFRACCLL

[5] = target: Ubiquitin carboxyl-terminal hydrolase BAP1 (Homo sapiens, UniProt Q92560); assay: inhibition of BAP1 ubiquitin hydrolase activity – biochemical, dose response (AID 714); format: functional
[6] = reduced cellular PGC1a acetyl-lysine signal – cell-based, cherry-picked samples, dose response (AID 720514); format: functional;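 note: potency may reflect raised or lowered acetylation signal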
Vero = assay: viability of Vero cells under compound – cytotoxicity control for flavivirus capping enzyme inhibitors (AID 588742); format: functional; conditions: Chlorocebus sabaeus
[7] = target: Mitogen-activated protein kinase 10 (Homo sapiens, UniProt P53779); assay: Dose response biochemical screening assay for inhibitors of c-Jun N-Terminal Kinase 3 (JNK3). [Related pubchem assays: 746 ]
Sequence of Mitogen-activated protein kinase 10 (P53779 whole entry): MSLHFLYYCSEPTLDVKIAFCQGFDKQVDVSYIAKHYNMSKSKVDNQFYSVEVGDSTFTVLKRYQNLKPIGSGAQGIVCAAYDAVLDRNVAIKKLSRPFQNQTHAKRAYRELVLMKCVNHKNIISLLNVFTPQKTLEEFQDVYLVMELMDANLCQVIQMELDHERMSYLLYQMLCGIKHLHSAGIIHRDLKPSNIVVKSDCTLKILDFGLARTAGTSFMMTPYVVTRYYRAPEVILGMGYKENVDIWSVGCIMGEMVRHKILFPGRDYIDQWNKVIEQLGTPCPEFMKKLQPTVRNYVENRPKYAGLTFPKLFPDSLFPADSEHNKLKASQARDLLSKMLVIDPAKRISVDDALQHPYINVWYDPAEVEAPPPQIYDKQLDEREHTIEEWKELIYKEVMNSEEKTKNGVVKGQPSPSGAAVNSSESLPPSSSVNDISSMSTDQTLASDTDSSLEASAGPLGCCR

[8] = viability loss of HPDE-C7K cells – cell-based, fluorescence, HTS, primary screen (AID 431); format: functional; conditions: Homo sapiens
[9] = HPDE-C7 pancreatic duct cell viability loss – fluorescence, HTS (AID 430); format: functional, cell-based; conditions: Homo sapiens
Genome polyprotein = Genome polyprotein (dengue virus type 2, UniProt P29990); assay: flavivirus cap methylation enzyme inhibition – biochemical, confirmation dose response, primary screen (AID 588689); format: functional
Sequence of Genome polyprotein (P29990 2492-3391 limits assumed): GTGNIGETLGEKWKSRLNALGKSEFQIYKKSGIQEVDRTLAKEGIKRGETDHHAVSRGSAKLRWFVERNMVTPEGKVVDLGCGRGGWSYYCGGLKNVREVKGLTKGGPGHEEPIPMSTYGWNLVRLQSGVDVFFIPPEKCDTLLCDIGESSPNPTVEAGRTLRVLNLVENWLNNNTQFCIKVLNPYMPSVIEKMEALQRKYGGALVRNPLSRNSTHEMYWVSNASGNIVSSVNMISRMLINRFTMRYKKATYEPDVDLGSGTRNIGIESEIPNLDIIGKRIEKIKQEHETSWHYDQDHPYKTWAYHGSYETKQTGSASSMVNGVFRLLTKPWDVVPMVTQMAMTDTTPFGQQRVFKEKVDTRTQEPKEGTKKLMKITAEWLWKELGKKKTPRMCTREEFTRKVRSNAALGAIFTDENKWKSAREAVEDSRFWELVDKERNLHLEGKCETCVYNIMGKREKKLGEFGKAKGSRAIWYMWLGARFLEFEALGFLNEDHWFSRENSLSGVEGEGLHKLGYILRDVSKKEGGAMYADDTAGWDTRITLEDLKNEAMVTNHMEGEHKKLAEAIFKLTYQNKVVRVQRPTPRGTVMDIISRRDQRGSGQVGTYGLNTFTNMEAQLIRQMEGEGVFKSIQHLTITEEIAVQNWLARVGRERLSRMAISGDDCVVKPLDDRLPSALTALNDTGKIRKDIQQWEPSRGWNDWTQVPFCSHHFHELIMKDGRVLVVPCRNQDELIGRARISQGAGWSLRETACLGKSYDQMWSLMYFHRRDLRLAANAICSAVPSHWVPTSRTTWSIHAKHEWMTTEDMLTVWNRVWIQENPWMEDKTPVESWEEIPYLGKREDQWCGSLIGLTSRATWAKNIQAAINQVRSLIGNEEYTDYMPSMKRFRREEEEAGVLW

[10] = target: T3, Sphingosine 1-phosphate receptor 2 (Homo sapiens, UniProt O95136); assay: Dose Response Cell Based Assay for Antagonists of the S1P2 Receptor. [Related pubchem assays: 856, 736 ]; format: functional
T3 sequence (O95136 whole entry): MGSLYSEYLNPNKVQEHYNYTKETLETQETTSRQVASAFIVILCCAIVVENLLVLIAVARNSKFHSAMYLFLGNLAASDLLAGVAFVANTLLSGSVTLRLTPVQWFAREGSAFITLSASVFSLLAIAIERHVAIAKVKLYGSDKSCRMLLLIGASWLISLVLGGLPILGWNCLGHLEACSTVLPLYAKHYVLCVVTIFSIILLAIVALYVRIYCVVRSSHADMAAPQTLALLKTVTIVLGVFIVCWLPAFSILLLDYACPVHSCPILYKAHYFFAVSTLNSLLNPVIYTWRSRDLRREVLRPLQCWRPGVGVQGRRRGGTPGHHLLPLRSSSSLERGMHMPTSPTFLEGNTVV

[11] = target: Glucose-6-phosphate 1-dehydrogenase (Homo sapiens, UniProt P11413); assay: inhibition of Homo sapiens G6PD, dose series – biochemical, fluorescence, selectivity assay for P. falciparum G6PD inhibitor project, dose response (AID 504792); format: functional
Cytochrome P450 2C19 = Cytochrome P450 2C19 (Homo sapiens, UniProt P33261); assay: qHTS Assay for Inhibitors and Substrates of Cytochrome P450 2C19. [Related pubchem assays: 410 ]; format: ADME; conditions: read-out: Potency
Sequence of Cytochrome P450 2C19 (P33261 whole entry): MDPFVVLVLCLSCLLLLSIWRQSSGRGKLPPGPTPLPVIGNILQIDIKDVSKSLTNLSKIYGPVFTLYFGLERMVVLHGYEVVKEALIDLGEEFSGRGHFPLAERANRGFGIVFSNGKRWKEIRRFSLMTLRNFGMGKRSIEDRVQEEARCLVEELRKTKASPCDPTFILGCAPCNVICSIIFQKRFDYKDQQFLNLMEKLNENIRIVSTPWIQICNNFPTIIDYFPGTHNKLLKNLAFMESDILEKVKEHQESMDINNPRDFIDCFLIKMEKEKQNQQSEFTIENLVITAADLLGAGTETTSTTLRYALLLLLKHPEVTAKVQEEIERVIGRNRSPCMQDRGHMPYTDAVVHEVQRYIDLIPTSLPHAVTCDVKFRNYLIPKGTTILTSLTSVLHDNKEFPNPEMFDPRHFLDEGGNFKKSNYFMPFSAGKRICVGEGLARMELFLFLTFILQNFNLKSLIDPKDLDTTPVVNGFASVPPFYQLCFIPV

Cytochrome P450 3A4 = Cytochrome P450 3A4 (Homo sapiens, UniProt P08684); conditions: Potency;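 note: confirmatory qHTS run detecting inhibitors and substrates of CYP3A4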
Ephrin type-A receptor 4 = Ephrin type-A receptor 4 (Mus musculus, UniProt Q03137); assay: EphA4 ligand-binding antagonists – biochemical, colorimetric, mouse EphA4, primary screen (AID 689); format: functional
Sequence of Ephrin type-A receptor 4 (Q03137 whole entry): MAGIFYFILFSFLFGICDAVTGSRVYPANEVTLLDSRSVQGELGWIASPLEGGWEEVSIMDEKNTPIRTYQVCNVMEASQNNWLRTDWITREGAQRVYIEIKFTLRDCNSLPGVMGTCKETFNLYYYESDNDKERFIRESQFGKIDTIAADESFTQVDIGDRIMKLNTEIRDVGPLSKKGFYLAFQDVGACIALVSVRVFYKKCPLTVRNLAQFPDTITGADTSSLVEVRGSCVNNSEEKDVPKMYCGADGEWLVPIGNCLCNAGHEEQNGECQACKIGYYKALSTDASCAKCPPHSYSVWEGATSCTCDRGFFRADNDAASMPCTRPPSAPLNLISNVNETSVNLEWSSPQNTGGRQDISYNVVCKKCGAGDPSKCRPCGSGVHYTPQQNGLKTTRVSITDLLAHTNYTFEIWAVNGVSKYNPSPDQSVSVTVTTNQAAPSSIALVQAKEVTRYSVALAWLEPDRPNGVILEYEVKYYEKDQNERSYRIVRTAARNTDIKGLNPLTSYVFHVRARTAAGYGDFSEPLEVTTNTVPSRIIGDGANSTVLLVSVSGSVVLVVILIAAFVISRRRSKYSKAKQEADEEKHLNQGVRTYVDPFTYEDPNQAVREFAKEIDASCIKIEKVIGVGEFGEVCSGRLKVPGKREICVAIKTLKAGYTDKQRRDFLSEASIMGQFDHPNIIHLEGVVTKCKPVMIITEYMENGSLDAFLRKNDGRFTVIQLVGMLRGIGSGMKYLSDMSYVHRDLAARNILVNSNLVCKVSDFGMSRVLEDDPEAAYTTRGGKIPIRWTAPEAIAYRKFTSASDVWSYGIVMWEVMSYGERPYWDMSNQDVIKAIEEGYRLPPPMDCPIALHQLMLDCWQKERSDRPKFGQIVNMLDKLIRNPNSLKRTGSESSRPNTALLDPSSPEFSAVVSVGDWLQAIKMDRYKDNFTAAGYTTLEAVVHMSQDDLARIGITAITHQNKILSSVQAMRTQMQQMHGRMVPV

[12] = target: Glyceraldehyde-3-phosphate dehydrogenase (Homo sapiens, UniProt P04406)
Bcl-2-related protein A1 [13] = target: T4, Bcl-2-related protein A1 (Mus musculus, UniProt Q07440); assay: small-molecule antagonists of Bfl-1/BH3 interaction – biochemical, TR-FRET, mouse Bfl-1, confirmation (AID 621);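 note: TR-FRET binding of GST-Bfl-1 to FITC-labelled Bid peptide via terbium antibody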
T4 sequence (Q07440 whole entry): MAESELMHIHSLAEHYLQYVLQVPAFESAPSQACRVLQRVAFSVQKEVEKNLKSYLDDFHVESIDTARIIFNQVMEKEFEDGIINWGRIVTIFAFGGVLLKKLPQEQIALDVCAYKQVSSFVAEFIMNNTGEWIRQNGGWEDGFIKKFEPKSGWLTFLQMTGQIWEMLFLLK

Bcl-2-related protein A1 [14] = target: T4, Bcl-2-related protein A1; assay: Bfl-1 binding inhibitors, SAR follow-up, biochemical, fluorescence polarization (AID 1070)
[15] = target: T5, Carboxy-terminal domain RNA polymerase II polypeptide A small phosphatase 1 (Homo sapiens, UniProt Q9GZU7); assay: CTDSP1 inhibitors, concentration-response, biochemical, absorbance readout, ultra-high-throughput screen actives (AID 540297); format: functional
T5 sequence (Q9GZU7 whole entry): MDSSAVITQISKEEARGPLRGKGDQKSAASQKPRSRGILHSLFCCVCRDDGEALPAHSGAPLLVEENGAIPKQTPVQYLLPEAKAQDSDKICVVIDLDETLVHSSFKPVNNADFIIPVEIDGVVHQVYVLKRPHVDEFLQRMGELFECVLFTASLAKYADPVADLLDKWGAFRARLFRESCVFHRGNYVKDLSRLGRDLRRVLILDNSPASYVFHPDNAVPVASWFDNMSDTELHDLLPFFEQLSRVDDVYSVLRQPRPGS

[16] = target: Arf-GAP with SH3 domain, ANK repeat and PH domain-containing protein 1 (Homo sapiens, UniProt Q9ULH1); format: functional;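 note: biochemical fluorescence polarization dose–response screen measuring inhibition of ASAP1; ASAP1 GAP domain stimulating GTP hydrolysis by truncated human ARF1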
Sequence of Arf-GAP with SH3 domain, ANK repeat and PH domain-containing protein 1 (Q9ULH1 whole entry, the tested form may be a part): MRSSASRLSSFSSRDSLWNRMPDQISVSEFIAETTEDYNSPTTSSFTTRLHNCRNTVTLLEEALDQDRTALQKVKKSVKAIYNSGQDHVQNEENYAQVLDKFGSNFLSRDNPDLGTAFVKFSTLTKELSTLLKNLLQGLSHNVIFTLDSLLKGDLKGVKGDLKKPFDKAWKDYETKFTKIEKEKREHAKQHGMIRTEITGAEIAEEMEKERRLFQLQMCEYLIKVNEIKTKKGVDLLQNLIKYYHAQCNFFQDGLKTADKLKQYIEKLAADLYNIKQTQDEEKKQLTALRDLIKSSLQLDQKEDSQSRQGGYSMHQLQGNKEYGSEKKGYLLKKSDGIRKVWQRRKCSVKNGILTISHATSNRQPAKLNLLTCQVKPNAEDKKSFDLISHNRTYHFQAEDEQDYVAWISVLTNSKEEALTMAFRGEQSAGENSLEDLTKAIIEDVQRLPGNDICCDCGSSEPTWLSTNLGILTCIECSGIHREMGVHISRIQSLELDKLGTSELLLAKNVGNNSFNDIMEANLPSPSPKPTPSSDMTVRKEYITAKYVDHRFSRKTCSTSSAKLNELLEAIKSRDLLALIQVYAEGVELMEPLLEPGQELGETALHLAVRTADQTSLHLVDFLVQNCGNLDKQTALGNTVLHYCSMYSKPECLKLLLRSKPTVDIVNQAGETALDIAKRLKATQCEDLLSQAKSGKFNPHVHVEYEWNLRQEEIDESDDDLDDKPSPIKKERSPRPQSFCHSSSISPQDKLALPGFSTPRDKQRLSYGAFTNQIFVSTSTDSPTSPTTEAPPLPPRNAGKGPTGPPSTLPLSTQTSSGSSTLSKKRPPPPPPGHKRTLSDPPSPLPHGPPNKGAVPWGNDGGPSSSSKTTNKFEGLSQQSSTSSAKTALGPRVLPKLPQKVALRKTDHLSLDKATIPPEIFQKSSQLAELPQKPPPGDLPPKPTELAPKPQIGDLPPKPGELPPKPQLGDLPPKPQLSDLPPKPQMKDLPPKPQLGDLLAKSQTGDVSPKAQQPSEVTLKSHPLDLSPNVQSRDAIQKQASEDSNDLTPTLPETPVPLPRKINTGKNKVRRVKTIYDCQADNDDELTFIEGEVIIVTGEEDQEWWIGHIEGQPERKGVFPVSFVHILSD

[17] = target: Protein-tyrosine kinase 2-beta (Homo sapiens, UniProt Q14289);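 note: potency of inhibitors of PYK2 kinase phosphorylation of poly-GT substrate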
[18] = target: T6, RNA-binding protein pos-1 (Caenorhabditis elegans, UniProt G5EF15); assay: disruptors of C. elegans POS-1 RNA interaction – biochemical, fluorescence polarization, dose response (AID 1964);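 note: purified POS-1 fused to maltose binding protein made in E. coli; potency of compounds blocking POS-1 binding to fluorescent RNA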
T6 sequence (G5EF15 whole entry): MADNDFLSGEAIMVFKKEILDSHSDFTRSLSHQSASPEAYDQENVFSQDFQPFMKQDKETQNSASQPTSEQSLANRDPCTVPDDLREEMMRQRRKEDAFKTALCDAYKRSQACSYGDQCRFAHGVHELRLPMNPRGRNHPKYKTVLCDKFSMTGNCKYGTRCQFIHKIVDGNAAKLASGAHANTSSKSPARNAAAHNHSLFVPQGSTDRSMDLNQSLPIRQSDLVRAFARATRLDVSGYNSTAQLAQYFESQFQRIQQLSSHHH

[19] = target: T7, Zinc finger protein mex-5 (Caenorhabditis elegans, UniProt Q9XUB2); assay: potency of MEX-5 RNA-binding blockers – biochemical, C. elegans, fluorescence polarization, dose response (AID 1960)
T7 sequence (Q9XUB2 whole entry): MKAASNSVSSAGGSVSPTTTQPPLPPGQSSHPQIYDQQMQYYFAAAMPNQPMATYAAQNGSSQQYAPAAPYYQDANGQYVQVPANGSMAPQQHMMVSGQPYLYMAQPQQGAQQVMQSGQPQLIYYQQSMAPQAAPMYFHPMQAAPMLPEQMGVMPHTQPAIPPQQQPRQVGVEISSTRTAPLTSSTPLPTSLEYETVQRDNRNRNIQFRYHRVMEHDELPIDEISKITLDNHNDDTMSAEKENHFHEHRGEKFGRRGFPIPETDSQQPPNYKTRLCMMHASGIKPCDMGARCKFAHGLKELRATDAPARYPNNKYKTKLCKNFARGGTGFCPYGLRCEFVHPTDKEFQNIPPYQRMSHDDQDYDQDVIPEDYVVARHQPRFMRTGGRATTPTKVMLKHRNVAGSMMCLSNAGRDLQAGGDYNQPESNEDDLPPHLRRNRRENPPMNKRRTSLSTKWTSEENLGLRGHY

Streptococcus = assay: GAS UMAA2166 growth inhibition – luminescence, BacTiterGlo, counter-screen for streptokinase expression inhibitor project, dose response (AID 1915); format: functional, organism-based;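 note: potency for reduction of bacterial viability or growth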
[20] = target: T3, Sphingosine 1-phosphate receptor 2; assay: Dose Response Cell Based Assay for Agonists of the S1P2 Receptor. [Related pubchem assays: 729, 736, 843 ]; format: functional
Streptokinase A = target: T8, Streptokinase A (Streptococcus pyogenes serotype M1, UniProt P10520); assay: viability-normalized secreted streptokinase activity reduction – plasminogen activation absorbance, OD405, dose response (AID 1914); format: functional, Streptococcus pyogenes M1 GAS;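 note: secreted streptokinase activity via plasminogen activation per viability signal from cell pellet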
T8 sequence (P10520 whole entry): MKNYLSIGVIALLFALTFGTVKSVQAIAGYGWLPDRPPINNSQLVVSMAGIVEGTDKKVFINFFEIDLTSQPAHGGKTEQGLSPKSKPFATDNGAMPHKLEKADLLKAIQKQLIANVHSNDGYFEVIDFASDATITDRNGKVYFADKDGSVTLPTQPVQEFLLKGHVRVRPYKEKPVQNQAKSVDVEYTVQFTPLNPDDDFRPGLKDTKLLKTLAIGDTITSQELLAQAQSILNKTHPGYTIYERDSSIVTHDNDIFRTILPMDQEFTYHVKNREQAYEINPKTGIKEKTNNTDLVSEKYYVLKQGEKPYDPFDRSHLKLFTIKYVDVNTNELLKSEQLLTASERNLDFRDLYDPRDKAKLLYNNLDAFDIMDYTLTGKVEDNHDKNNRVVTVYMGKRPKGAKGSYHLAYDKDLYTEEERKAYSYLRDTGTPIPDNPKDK

[21] = tested on: Streptococcus sp. 'group A'; assay: Streptococcus pyogenes SK(-)GAS viability under kanamycin – luminescence, BacTiterGlo, confirmation, counter-screen for streptokinase expression inhibitor project, dose response (AID 1900); format: functional, organism-based
[22] = Luminescence Cell-Based Dose Retest to Confirm Inhibitors of Cancer Stem Cells. [Related pubchem assays (depositor defined):AID2717, AID2721]; format: functional; conditions: Homo sapiens
[23] = P. falciparum Dd2 growth inhibitors, dose response, SYBR Green, cherry-picked samples (AID 1159567); format: functional, cell-based
[24] = Dd2 malaria parasite growth inhibition potency – SYBR Green, dry powder samples, dose response (AID 1159566); format: functional, cell-based;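 note: potency for growth inhibition with lower SYBR green DNA signal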
[25] = Plasmodium falciparum Dd2 Sybr green parasite growth Measured in Cell-Based and Microorganism Combination System Using Plate Reader - 2153-01_Inhibitor_Dose_DryPowder_Activity_Set3.; format: functional
[26] = growth inhibition of yeast DHODH-expressing 3D7 parasites – SYBR Green, dry powder samples, dose response (AID 1159570); format: functional, cell-based;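 note: parasite growth measured after 72 hours of compound exposure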
[27] = growth inhibition of PfATP4-mutant resistant parasites – NITD609-resistant line, SYBR Green, dry powder, dose response (AID 1159571); format: functional, cell-based;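 note: parasites synchronized at ring stage by sorbitol before testing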
[28] = toxicity to human HepG2 hepatoma cells – cell-based, plate reader, dry powder samples, cytotoxicity control, dose response (AID 1159569); format: functional;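 note: inhibitor potency with signal falling toward the positive control level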

COc1ccc(NC(=O)c2ccc(C)cc2)c(OC)c1
EC50 [1]: 3.78 µM (active)

C=CC#CC[N+]1(CC#Cc2ccccc2)CCOCC1
IC50 (Cysteine protease ATG4B): 5.56 µM (active) | IC50 [2]: 124 µM (active) | IC50 (Phospholipase A2): 11.8 µM (active)

CN(C(=O)COC(=O)/C=C/c1ccc(Cl)c(Cl)c1)c1c(N)n(Cc2ccccc2)c(=O)[nH]c1=O
IC50 [3]: > 100 µM (active)

COc1ccc(C(=O)CNc2ccc3ccccc3c2)cc1
IC50 [4]: > 50 µM (not active)

N#Cc1c(NC(=O)CCN2C(=O)c3ccccc3C2=O)oc(-c2ccccc2)c1-c1ccccc1
IC50 [5]: > 50 µM (not active)

CC(=O)Nc1cc(OC(C)=O)c2nonc2c1OC(C)=O
AC50 [6]: 4.89 µM (active) | CC50 (Vero): 12.6 µM (active) | IC50 [7]: 46.6 µM (not active) | EC50 [8]: 6.32 µM (active) | EC50 [9]: 5.65 µM (active) | IC50 (Genome polyprotein): 38 µM (active) | IC50 [10]: 6.21 µM (active) | IC50 [11]: > 80 µM (inactive)

C=C/C1=C/Cc2ccccc2C(C[N+](=O)[O-])C(C(=O)OC)(C(=O)OC)C1 (stereo not drawn)
AC50 (Cytochrome P450 2C19): 7.94 µM (inconclusive) | AC50 (Cytochrome P450 3A4): 3.16 µM (inconclusive)

COc1ccc(C(=O)CN2CCOCC2)cc1F
IC50 (Ephrin type-A receptor 4): > 100 µM (not active)

COC(=O)c1cc(C)nc(S(C)(=O)=O)n1
IC50 [12]: > 100 µM (not active) | IC50 (Bcl-2-related protein A1 [13]): > 100 µM (not active) | IC50 (Bcl-2-related protein A1 [14]): > 100 µM (not active)

O=C(N/N=C/C=C/c1ccc([N+](=O)[O-])cc1)c1cccs1
IC50 [15]: 4.28 µM (active) | IC50 [16]: 20.7 µM (inactive) | IC50 [17]: 6.61 µM (active) | EC50 [18]: > 300 µM (not active) | EC50 [19]: 53.6 µM (active)

Clc1ccc(-c2ccc(/C=N/Nc3cc(N4CCOCC4)nc(N4CCOCC4)n3)o2)cc1
EC50 (Streptococcus): 17.1 µM (active) | CC50 (Vero): 34.6 µM (active) | EC50 [20]: 10.8 µM (not active) | EC50 (Streptokinase A): > 150 µM (not active) | EC50 [21]: 19.4 µM (active) | AC50 [22]: 1.73 µM (active)

COc1ccc(CN2C[C@@H](C)[C@H](OC)CN(C)C(=O)c3ccc(NC(=O)c4nc5ccccc5s4)cc3OC[C@H]2C)cc1
AC50 [23]: 0.854 µM (active) | AC50 [24]: 0.643 µM (active) | AC50 [25]: 1.06 µM (active) | AC50 [26]: 3.16 µM (active) | AC50 [27]: 1.25 µM (active) | AC50 [28]: > 92 µM (inactive)
